Where no end group is shown, it is not given here. The star is where a group is joined. Octanoyl = CCCCCCCC(=O)*

Assay [1] relates to cultured spinal neuronal precursor cells. Nature of the assay: BrdU incorporation into cultured spinal neuronal precursor cells (Cell Proliferation ELISA). Type of assay: cell-based, Wistar rat. As to conditions: for BrdU incorporation into cultured spinal neuronal precursor cells, Mean ± S.D.: incubation 12 hours, n=6, Control 100.0 ± 6.7; for concentration that increased the BrdU incorporation into the cells: 12 hours. The text has this:
Embryos were extracted from a pregnant Wistar rat at day 17 by opening the abdomen under anesthesia. Spinal cords were collected from these embryos and subjected to papain digestion in Hank's balanced salt solution; as a result of subsequent mechanical separation by pipetting, a dispersion of embryonic spinal cord cells was obtained. After being filtered and centrifuged, the dispersed cells were suspended in a DMEM medium containing NaHCO3, 5% fetal bovine serum, penicillin (100 U/mL) and streptomycin (100 μg/mL), followed by plating onto laminin-coated 96-well multi-plates at 10^5 cells per well. After incubation for 4 days, 5-bromo-2'-deoxyuridine (BrdU) (10 μM) was added and incubation was conducted for 6 hours, followed by addition of rat ghrelin (0.003-300 nM) and subsequent incubation for 12 hours. After the end of incubation, the cells were recovered and using Cell Proliferation ELISA Kit (Roche Diagnostic GmbH, Mannheim, Germany), the amount of BrdU incorporation into the cells was measured to investigate the action of ghrelin on BrdU incorporation. Embryos were extracted from a pregnant Wistar rat at day 16 by opening the abdomen under anesthesia. Spinal cords were collected from these embryos and subjected to papain digestion in Hank's balanced salt solution; as a result of subsequent mechanical separation by pipetting, a dispersion of embryonic spinal cord cells was obtained. After being filtered and centrifuged, the dispersed cells were suspended in a DMEM medium containing NaHCO3, 5% fetal bovine serum, penicillin (100 U/mL) and streptomycin (100 μg/mL), followed by plating onto laminin-coated 96-well multi-plates at 10^5 cells per well. After incubation for 4 days, 5-bromo-2'-deoxyuridine (BrdU) (10 μM) was added and incubation was conducted for 6 hours; further, rat ghrelin, ghrelin(1-5)-Lys-NH2 (GSS(n-octanoyl)FLK-NH2), ghrelin(1-7)-Lys-NH2 ([…]) or MK-0677 having the structure indicated below was added in amounts of 0.03-3 nM and incubation was conducted for 12 hours before investigating the action of ghrelin on BrdU incorporation. After the end of incubation, the cells were recovered and using Cell Proliferation ELISA Kit (Roche Diagnostic GmbH, Mannheim, Germany), the amount of BrdU incorporation into the cells was measured to investigate the action of ghrelin on BrdU incorporation.
(Dividing cells build labelled thymidine or BrdU into new DNA.)

Assay [2] has as its system spinal neuron proliferating action of ghrelin. As to the kind of experiment: Effect of L-type calcium channel blocker on the spinal neuron proliferating action of ghrelin. Type of assay: cell-based.
Assay [3] relates to spinal neuronal precursor cells. Nature of the assay: Detection of BrdU positive cells with anti-BrdU antibody. The format is cell-based, Wistar rat. As to conditions: FIG. 5, compared to the case where ghrelin was not allowed to act (physiological saline). The text has this: Embryos were extracted from a pregnant Wistar rat at day 17 by opening the abdomen under anesthesia. Spinal cords were collected from these embryos and subjected to papain digestion in Hank's balanced salt solution; as a result of subsequent mechanical separation by pipetting, a dispersion of embryonic spinal cord cells was obtained. After being filtered and centrifuged, the dispersed cells were suspended in a DMEM medium containing NaHCO3, 5% fetal bovine serum, penicillin (100 U/mL) and streptomycin (100 μg/mL), followed by plating onto laminin-coated 96-well multi-plates at 10^5 cells per well. After incubation for 4 days, 5-bromo-2′-deoxyuridine (BrdU) (10 μM) was added and incubation was conducted for 6 hours, followed by addition of rat ghrelin (0.003-300 nM) and subsequent incubation for 12 hours.
After the end of incubation, the cells were fixed with methanol and glacial acetic acid, had their DNA denatured with 2 N HCl; thereafter, the BrdU incorporated into the cells was measured by detecting the BrdU positive cells using a rat anti-BrdU monoclonal antibody (1:1000, Abcam, Cambridge, UK) as a primary antibody, and also using Cy™ 3-conjugated donkey anti-rat IgG polyclonal antibody (1:1000, Jackson ImmunoResearch Laboratories, Inc., PA, USA) as a secondary antibody, in order to investigate the action of ghrelin for proliferating spinal precursor cells. […]

Assay [4] shares this test system. Nature of the assay: Double immunostaining for Nestin or Map2 and BrdU in proliferating spinal cord cells. Type of assay: cell-based, Wistar rat. Conditions: FIG. 3-1 A and B; BrdU in nuclei of Nestin-stained cells, not in Map2-stained cells. How it is done: Double immunostaining was conducted in order to confirm the co-presence of the neuronal precursor cell marker Nestin or the neutron marker Map2 and GHS-R in proliferating cells (cells that were incorporating BrdU).
Embryos were extracted from a pregnant Wistar rat at day 17 by opening the abdomen under anesthesia. Spinal cords were collected from these embryos and subjected to papain digestion in Hank's balanced salt solution; as a result of subsequent mechanical separation by pipetting, a dispersion of fetal spinal cord cells was obtained. After being filtered and centrifuged, the dispersed cells were suspended in a DMEM medium containing NaHCO3, 5% fetal bovine serum, penicillin (100 U/mL) and streptomycin (100 μg/mL), followed by plating onto laminin-coated 96-well multi-plates at 10^5 cells per well.
To the plates, 5-bromo-2′-deoxyuridine (BrdU) (10 μM) was added and incubation was conducted for 4 days to thereby incorporate the BrdU into the spinal cord cells. The spinal cord cells were fixed with methanol and glacial acetic acid at −20° C. for 20 minutes. After DNA denaturation with 2 M HCl, 2% normal goat serum in PBS was used to perform blocking at room temperature for 30 minutes. […]

Assay [5] relates to rat models with injured spinal cord. As to the kind of experiment: Grafting spinal neuronal precursor cells and locally administering ghrelin to rat models with injured spinal cord. Type of assay: in vivo, SD rats. How it is done:
In accordance with the procedure described in Morino, T. et al, Neuroscience Research, 2003, vol. 46, pp 309-318, the grafting of spinal neuronal precursor cells and local administration of ghrelin to rat models with injured spinal cord were assessed. Male SD rats (8 to 9 weeks old) were anesthetized with pentobarbital and incised in the back to expose a vertebra ([…]). After excising the vertebral arch, a dental drill was used to open a window with a diameter of […], and a stainless steel needle with a silicone rubber fixed thereto was applied vertically, followed by loading of the top with a 20-g weight. Following a compression time of 30 minutes, a damaging drop equivalent to a weight of about 100 g was finally applied from above to construct models suffering a movement disorder in the lower limbs. The animals were divided into three groups: 1) a group under sham operation; 2) a control group with injured spinal cord; and 3) a group with injured spinal cord, treated by cell grafting, and locally administered with ghrelin. The group under sham operation received laminectomy but was simply sutured in the muscle and skin thereafter. After injuring the spinal cord, cultured spinal neuronal precursor cells (10^5 cells/25 μL) were grafted subdurally. Rat ghrelin was administered subdurally in an amount of 1 nmol together with the cells.
Twenty-four hours after the operation, the rats were transferred into a see-through cage and observed for the frequency of their standing up (by 3-minute observation). More specifically, the frequency of the rat standing up (in such a posture that it lifted the upper limbs and supported the body weight only with the lower limbs) was counted to assess the function of its hind limbs.

On to `CC(C)(N)C(=O)N[C@H](COCc1ccccc1)C(=O)N1CCC2(CC1)CN(S(C)(=O)=O)c1ccccc12` [MK-0677, reference compound], for which the figures for the “BrdU incorporation into cultured spinal neuronal precursor cells, Mean ± S.D.” value in assay [1] (0.03 nM), in assay [1] (0.3 nM) and in assay [1] (3 nM) were 119.5 ± 4.6, 112.0 ± 13.9 and 105.8 ± 13.0, respectively. The “concentration that increased the BrdU incorporation into the cells” value in assay [1] (Example 5, 0.03-3 nM tested) came to 0.03 nM.
As to `COc1ccc([C@@H]2Sc3ccccc3N(CCN(C)C)C(=O)[C@@H]2OC(C)=O)cc1` [diltiazem], in assay [2], the “suppression of the spinal neuron proliferating action of ghrelin” value was “did not suppress”.
For “GSS(n-octanoyl)FLK-NH2 (GSS(Octanoyl)FLK-NH2; N-terminus assumed; SMILES CCCCCCCC(=O)OC[C@H](NC(=O)[C@H](CO)NC(=O)CN)C(=O)N[C@@H](Cc1ccccc1)C(=O)N[C@@H](CC(C)C)C(=O)N[C@@H](CCCCN)C(N)=O) [Ghrelin (1-5)-Lys-NH2]”, the “BrdU incorporation into cultured spinal neuronal precursor cells, Mean ± S.D.” value was 106.9 ± 13.2 in assay [1] (0.03 nM), 114.2 ± 11.3 in assay [1] (0.3 nM) and 103.5 ± 9.6 in assay [1] (3 nM).
In the case of “GSS(n-octanoyl)FLSPK-NH2 (GSS(Octanoyl)FLSPK-NH2; N-terminus assumed; SMILES CCCCCCCC(=O)OC[C@H](NC(=O)[C@H](CO)NC(=O)CN)C(=O)N[C@@H](Cc1ccccc1)C(=O)N[C@@H](CC(C)C)C(=O)N[C@@H](CO)C(=O)N1CCC[C@H]1C(=O)N[C@@H](CCCCN)C(N)=O) [Ghrelin (1-7)-Lys-NH2]”, the “BrdU incorporation into cultured spinal neuronal precursor cells, Mean ± S.D.” value is listed as 108.3 ± 11.6 in assay [1] (0.03 nM), 115.9 ± 14.1 in assay [1] (0.3 nM) and 140.5 ± 41.9 in assay [1] (3 nM).
For “Ghrelin: rat ghrelin: 28-residue peptide, third serine acylated with n-octanoyl; endogenous ligand of GHS-R1a (SEQ ID NO:3 or 4) (GSS(Octanoyl)FLSPEHQKAQQRKESKKPPAKLQPR)”, the “BrdU incorporation into cultured spinal neuronal precursor cells, Mean ± S.D.” value in assay [1] (0.03 nM) stood at 112.5 ± 8.7; in assay [1] (0.3 nM), 112.0 ± 15.0; in assay [1] (3 nM), 120.4 ± 7.9. Moreover, the “concentration that increased the BrdU incorporation into the cells” value in assay [1] (Example 4, FIG. 4, rat ghrelin 0.003-300 nM tested) is given as at least 3 nM. For the same compound, the “BrdU positive cells detected” value in assay [3] is given as “a large number of BrdU positive cells were detected”. Also, the “cell type proliferated after treatment (BrdU with Nestin or Map2 double staining)” value in assay [4] is reported as “has an action for proliferating spinal neuronal precursor cells”. Moreover, the “frequency of a rat standing up per unit time, 24 hours after operation” value in assay [5] (24 hours after operation, rat ghrelin 1 nmol subdurally together with grafted cells (10^5 cells/25 μL), 3-minute observation, control group with injured spinal cord 1.3 ± 0.6) was found to be 8.7 ± 4.2. In addition, the “function of hind limbs (frequency of standing up), result in words” value in assay [5] (combination of cell grafting and local administration of ghrelin) was “led to a recovery in the frequency of standing up”. In addition, in assay [5] (initial, 3-minute observation), the “frequency of a rat standing up per unit time, Initial” value is recorded as 11.7 ± 2.3.
